For assay [1], the target named is T1, unphosphorylated c-KIT kinase (uKIT, Seq. ID no. 2) (Homo sapiens, UniProt P10721).
T1 construct: uKit with N-terminal GST fusion used for screening
Briefly: uKit kinase assay (ADP production coupled to pyruvate kinase/lactate dehydrogenase). The assay is classed as biochemical. The protocol:
In this assay, the oxidation of NADH (thus the decrease at A340 nm) was continuously monitored spectrophometrically. […] The inhibition reaction was started by mixing serial diluted test compound with the above reaction mixture. The absorption at 340 nm was monitored continuously for 4 hours at 30° C. on Synergy 2 plate reader (BioTech).

Assay [2] deals with PC-3 M-luc cells. Description: PC-3 peritibial implant model of cancer bone metastasis. The settings on record: oral dose of 30 mg/kg twice daily for 39 days; scale 0-4; vehicle-treated animals 4. In kind it is in vivo, mouse. From the text:
PC-3 Peritibial Implant Model of Cancer Bone Metastasis To evaluate in vivo anti-cancer activity of compounds of formula I, the PC-3 M-luc peritibial injection model of bone invasiveness model was employed. Briefly, PC-3 M-luc cells were obtained from Xenogen Corporation (Caliper Life Sciences) and expanded using MEM media modified with L-Glutamine (Cell Gro® #10-045-CV) supplemented with 10% fetal bovine serum, 1% penicillin-streptomycin-glutamine, 1% non-essential amino acids, and 1% MEM vitamins in 5% CO2 atmosphere at 37° C. Six to 7 week old male nude mice (Crl:NU-Foxnlnu) were obtained from Charles River Laboratories. Test mice were implanted peritibially on Day 0 with 1×10^6 cells/mouse (0.1 ml) using an insulin syringe with a fixed 28-gauge needle. The needle was inserted at the ankle between the tibia and fibula until the bevel of the needle reached approximately half way between the knee and ankle. Treatments began on Day 0. Animals were dosed by oral gavage twice daily for the study duration. All procedures carried out in this experiment were conducted in compliance with all the laws, regulations and guidelines of the National Institutes of Health (NIH). […]

The target of assay [3] is T2, unphosphorylated PDGFRβ kinase (uPDGFRβ, Seq. ID No. 3) (Homo sapiens, UniProt P09619).
T2 construct: purchased DeCode
T2 sequence (P09619 557-1106): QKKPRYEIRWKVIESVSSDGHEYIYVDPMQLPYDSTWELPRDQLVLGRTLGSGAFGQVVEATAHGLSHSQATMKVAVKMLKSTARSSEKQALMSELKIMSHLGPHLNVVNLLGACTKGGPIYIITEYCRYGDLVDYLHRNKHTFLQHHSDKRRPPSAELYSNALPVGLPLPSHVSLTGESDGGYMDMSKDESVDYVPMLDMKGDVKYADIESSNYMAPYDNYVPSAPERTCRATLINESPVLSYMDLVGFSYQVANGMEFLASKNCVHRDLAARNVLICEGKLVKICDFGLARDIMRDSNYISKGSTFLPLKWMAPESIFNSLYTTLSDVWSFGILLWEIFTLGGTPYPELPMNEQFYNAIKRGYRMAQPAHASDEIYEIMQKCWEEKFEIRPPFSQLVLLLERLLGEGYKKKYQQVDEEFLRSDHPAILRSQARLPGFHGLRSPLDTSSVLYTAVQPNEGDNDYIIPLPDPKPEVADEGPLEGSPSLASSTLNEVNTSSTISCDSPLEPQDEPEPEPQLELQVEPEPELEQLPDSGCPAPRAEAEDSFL
Description: uPDGFRβ kinase assay (ADP production coupled to pyruvate kinase/lactate dehydrogenase). The assay is classed as biochemical. The settings on record: enzymatic assay, ATP 500 μM. The protocol: Unphosphorylated […]β) Kinase (Seq. ID No. 3) Assay Activity of unphosphorylated PDGFRβ kinase ([…] No. 3) was determined by following the production of ADP from the kinase reaction with ATP and poly E4Y as substrates through coupling with the pyruvate kinase/lactate dehydrogenase system (e.g., Schindler et al. Science (2000) 289: 1938-1942). In this assay, the oxidation of NADH (thus the decrease at A340 nm) was continuously monitored spectrophometrically. The reaction mixture (100 μL) contained PDGFRβ (DeCode, 15.7 nM), polyE4Y (2.5 mg/mL), MgCl2 (10 mM), pyruvate kinase (4 units), lactate dehydrogenase (0.7 units), phosphoenol pyruvate (1 mM) and NADH (0.28 mM) and ATP (500 μM) in a 90 mM Tris buffer containing 0.2% octyl-glucoside and 1% DMSO, at pH 7.5. The inhibition reaction was started by mixing serial diluted test compound with the above reaction mixture. The absorption at 340 nm was monitored continuously for 4 h at 30° C. on a Polarstar Optima or Synergy 2 plate reader. The reaction rate was calculated using the 1.5 to 2.5 h time frame. Percent inhibition was obtained by comparison of reaction rate with that of a control (i.e. with no test compound). IC50 values were calculated from a series of percent inhibition values determined at a range of inhibitor concentrations using software routines as implemented in the GraphPad Prism software package.

Assay [4] concerns osteoclast precursors. Description: Osteoclast tartrate-resistant acid phosphatase assay. The assay is classed as cell-based. The settings on record: tartrate-resistant acid phosphatase activity, RANKL and M-CSF, 7-14 days. Here is the method:
Osteoclast Tartrate-Resistant Acid Phosphatase Assay
A serial dilution of test compound was dispensed into a 384-well black clear bottom plate (Nalge Nunc International, Rochester, N.Y.). Compound was diluted by the addition of DMEM media supplemented with 10% characterized fetal bovine serum (Invitrogen, Carlsbad, Calif.). Diluted compound was transferred to a 384-well black clear bottom plate. Two-thousand five hundred osteoclast precursors (Lonza, Walkersville, Md.) were added per well in growth media containing Receptor Activator of Nuclear Factor Kappa-beta ligand (RANKL) and M-CSF (R&D Systems, Minneapolis, Minn.). Plates were incubated for 7-14 days at 37 degrees Celsius, 5% CO2, and 95% humidity to allow differentiation of osteoclast precursors. At the end of the incubation period, 10 μL of supernatant from each well was transferred to a clear 384-well plate. Tartrate-resistant acid phosphatase activity in the supernatant samples was determined using an acid phosphatase assay kit (Sigma, St. Louis, Mo.). Absorbance was measured at 550 nm using a plate reader. Data was analyzed using Prism software (Graphpad, San Diego, Calif.) to calculate IC50 values.

For assay [5], the target named is T3, phospho-FMS in THP-1 cells (Homo sapiens, UniProt P07333).
T3 construct: endogenous in cells; host or cells: THP-1 (ATCC TIB-202)
T3 sequence (P07333 20-972): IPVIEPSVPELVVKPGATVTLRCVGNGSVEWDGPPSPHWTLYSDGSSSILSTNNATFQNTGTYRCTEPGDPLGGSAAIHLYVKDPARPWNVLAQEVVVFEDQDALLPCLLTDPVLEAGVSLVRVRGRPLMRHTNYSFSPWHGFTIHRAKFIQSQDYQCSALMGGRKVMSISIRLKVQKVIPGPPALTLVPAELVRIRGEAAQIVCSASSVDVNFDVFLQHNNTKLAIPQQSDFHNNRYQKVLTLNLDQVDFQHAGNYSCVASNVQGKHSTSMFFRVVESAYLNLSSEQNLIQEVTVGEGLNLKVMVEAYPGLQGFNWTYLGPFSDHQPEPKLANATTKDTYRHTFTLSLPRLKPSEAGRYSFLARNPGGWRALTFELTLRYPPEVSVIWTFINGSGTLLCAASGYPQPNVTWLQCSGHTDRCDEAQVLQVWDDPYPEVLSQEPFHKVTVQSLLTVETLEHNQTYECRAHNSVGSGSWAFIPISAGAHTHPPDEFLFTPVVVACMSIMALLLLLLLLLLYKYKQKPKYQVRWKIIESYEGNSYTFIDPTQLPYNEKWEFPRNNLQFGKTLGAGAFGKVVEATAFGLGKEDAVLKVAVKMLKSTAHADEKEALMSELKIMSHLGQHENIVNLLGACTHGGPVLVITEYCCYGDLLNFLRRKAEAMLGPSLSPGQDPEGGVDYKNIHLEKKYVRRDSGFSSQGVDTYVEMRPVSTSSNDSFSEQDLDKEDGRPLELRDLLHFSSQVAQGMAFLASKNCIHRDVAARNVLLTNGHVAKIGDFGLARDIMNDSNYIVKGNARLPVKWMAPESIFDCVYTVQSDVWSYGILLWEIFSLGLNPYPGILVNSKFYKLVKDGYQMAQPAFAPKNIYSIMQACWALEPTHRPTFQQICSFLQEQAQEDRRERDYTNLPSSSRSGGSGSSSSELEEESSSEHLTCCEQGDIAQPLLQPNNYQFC
Briefly: Phospho-FMS ELISA assay in THP-1 cells. The assay is classed as cell-based. The settings on record: 4 hours compound, M-CSF stimulation 5 minutes, read-out: pFMS inhibition in THP-1 cells. The protocol:
Cells were allowed to expand until reaching 70-95% confluency at which point they were subcultured or harvested for assay use.
In a separate 96 well black clear bottom plate, one hundred and fifty thousand THP-1 cells were added per well in 100 μL in assay medium. Fifty microliters of diluted compound was then added to the cells. Plates were incubated for 4 hours at 37 degrees Celsius, 5% CO2, 95% humidity. […] Lysates were prepared and used to perform the phospho-FMS ELISA as described by the manufacturer (catalog #DYC3268, R & D Systems, Minneapolis, Minn.). GraphPad Prism was used to calculate IC50 values obtained from data generated from the ELISA assay.
(An ELISA detects its analyte on a solid surface through an enzyme-linked reagent.)

The target in assay [6] is T4, unphosphorylated c-FMS kinase (uFMS, Seq. ID no. 1) (Homo sapiens, UniProt P07333).
T4 construct: purchased Millipore
T4 sequence (P07333 538-972): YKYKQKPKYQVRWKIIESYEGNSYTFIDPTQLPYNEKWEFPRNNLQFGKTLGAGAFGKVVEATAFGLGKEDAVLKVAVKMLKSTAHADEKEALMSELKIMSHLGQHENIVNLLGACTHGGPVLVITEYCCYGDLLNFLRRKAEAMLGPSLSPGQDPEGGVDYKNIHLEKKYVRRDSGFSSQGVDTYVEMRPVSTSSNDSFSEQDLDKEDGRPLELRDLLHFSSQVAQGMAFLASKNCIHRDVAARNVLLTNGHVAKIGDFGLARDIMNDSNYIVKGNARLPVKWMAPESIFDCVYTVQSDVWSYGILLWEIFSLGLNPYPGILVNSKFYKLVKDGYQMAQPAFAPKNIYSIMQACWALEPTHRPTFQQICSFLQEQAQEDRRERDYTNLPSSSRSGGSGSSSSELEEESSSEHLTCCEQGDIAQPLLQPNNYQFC
Briefly: uFMS kinase assay (ADP production coupled to pyruvate kinase/lactate dehydrogenase). In kind it is biochemical. The settings on record: enzymatic assay, ATP 500 μM. The protocol:
uFMS Kinase (Seq. ID No. 1) Assay
In this assay, the oxidation of NADH (thus the decrease at A340 nm) was continuously monitored spectrophometrically. The reaction mixture (100 μL) contained FMS (purchased from Millipore) (10 nM), polyE4Y (1 mg/mL), MgCl2 (10 mM), pyruvate kinase (4 units), lactate dehydrogenase (0.7 units), phosphoenol pyruvate (1 mM), NADH (0.28 mM) and ATP (500 μM) in 90 mM Tris buffer containing 0.2% octyl-glucoside and 1% DMSO, pH 7.5. The inhibition reaction was started by mixing serial diluted test compound with the above reaction mixture. The absorption at 340 nm was monitored continuously for 4 hours at 30° C. on Synergy 2 plate reader. The reaction rate was calculated using the 3 to 4 h time frame. Percent inhibition was obtained by comparison of reaction rate with that of a control (i.e. in the absence of test compound). IC50 values were calculated from a series of percent inhibition values determined at a range of inhibitor concentrations using software routines as implemented in the GraphPad Prism software package.

In assay [7] the test system is M-NFS-60 cells. Briefly: M-NFS-60 cell proliferation assay (resazurin). The settings on record: 67 h incubation. In kind it is cell-based. Here is the method: M-NFS-60 cells (catalog #CRL-1838) were obtained from the American Type Culture Collection (ATCC, Manassas, Va.). Briefly, cells were grown in suspension in RPMI 1640 medium supplemented with 10% characterized fetal bovine serum (Invitrogen, Carlsbad, Calif.), 0.05 mM 2-mercaptoethanol, and 20 ng/mL mouse recombinant macrophage colony stimulating factor (M-CSF) at 37° C., 5% CO2, and 95% humidity. Cells were allowed to expand until reaching saturation at which point they were subcultured or harvested for assay use.
M-NFS-60 Cell Proliferation Assay
A serial dilution of test compound was dispensed into a 384-well black clear bottom plate (Corning, Corning, N.Y.). Two thousand five hundred cells were added per well in 50 μL complete growth medium. Plates were incubated for 67 h at 37° C., 5% CO2, and 95% humidity. At the end of the incubation period 10 μL of a 440 µM solution of resazurin (Sigma, St. Louis, Mo.) in PBS was added to each well and incubated for an additional 5 h at 37° C., 5% CO2, and 95% humidity. Plates were read on a Synergy2 reader (Biotek, Winooski, Vt.) using an excitation of 540 nm and an emission of 600 nm. IC50 values were calculated from a series of percent inhibition values determined at a range of inhibitor concentrations using software routines as implemented in the GraphPad Prism software package.

Setting [8] is: enzymatic assay, ATP 2000 μM, read-out: uKIT.

pIC50: −log10 of the molar value. Read-outs that look alike come from different tables or passages of the source.

T1 sequence (P10721 with tags, fused parts or gaps): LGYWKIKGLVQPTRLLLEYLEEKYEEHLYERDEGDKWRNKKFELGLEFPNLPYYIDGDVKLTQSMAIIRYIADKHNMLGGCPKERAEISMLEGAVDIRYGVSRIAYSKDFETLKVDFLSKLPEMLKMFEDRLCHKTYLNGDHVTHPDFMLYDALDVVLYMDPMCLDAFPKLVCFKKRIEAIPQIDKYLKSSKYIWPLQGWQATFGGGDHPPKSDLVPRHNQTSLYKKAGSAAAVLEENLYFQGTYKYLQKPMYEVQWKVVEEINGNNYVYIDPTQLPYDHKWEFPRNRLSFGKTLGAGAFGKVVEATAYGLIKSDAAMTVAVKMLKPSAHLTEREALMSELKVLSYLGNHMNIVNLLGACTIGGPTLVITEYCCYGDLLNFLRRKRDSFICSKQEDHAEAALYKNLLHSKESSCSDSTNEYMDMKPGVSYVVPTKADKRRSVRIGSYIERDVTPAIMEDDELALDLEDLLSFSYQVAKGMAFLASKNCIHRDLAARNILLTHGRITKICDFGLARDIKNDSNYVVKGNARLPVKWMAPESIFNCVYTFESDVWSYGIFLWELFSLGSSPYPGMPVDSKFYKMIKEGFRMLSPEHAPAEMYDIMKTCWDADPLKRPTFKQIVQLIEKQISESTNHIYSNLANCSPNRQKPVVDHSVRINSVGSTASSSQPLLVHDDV

Take `Cc1nc(-c2cnc(NC(C)C)n(C)c2=O)ccc1Oc1ccnc(-c2cnn(C)c2)c1` [Example 10, 2-(isopropylamino)-3-methyl-5-(6-methyl-5-((2-(1-methyl-1H-pyrazol-4-yl)pyridin-4-yl)oxy)pyridin-2-yl)pyrimidin-4(3H)-one]: the pIC50 in assay [1] is 6.00 to 7.00; in assay [3], < 6.00; in assay [4], > 8.00. The compound further returned a lesion score in assay [2] of 2.
As for `Cc1nc(-c2cnc(NC(C)(C)C)[nH]c2=O)ccc1Oc1ccnc(-c2cnn(C)c2)c1` [Example 28, 2-(tert-butylamino)-5-(6-methyl-5-((2-(1-methyl-1H-pyrazol-4-yl)pyridin-4-yl)oxy)pyridin-2-yl)pyrimidin-4(3H)-one], the pIC50 in assay [1] (setting [8]) was 7.00 to 8.00; in assay [5], 7.00 to 8.00; in assay [3], 7.00 to 8.00; in assay [6] it was > 8.00; in assay [4], 7.00 to 8.00; in assay [7] it was 7.00 to 8.00.
Turning to `CCNc1ncc(-c2ccc(Oc3ccnc(-c4cnn(C)c4)c3)c(C)n2)c(=O)n1C` [Example 25, 2-(ethylamino)-3-methyl-5-(6-methyl-5-((2-(1-methyl-1H-pyrazol-4-yl)pyridin-4-yl)oxy)pyridin-2-yl)pyrimidin-4(3H)-one], the pIC50 in assay [1] (setting [8]) is 6.00 to 7.00; in assay [5], 7.00 to 8.00; in assay [3] it was < 6.00; in assay [6] it was 7.00 to 8.00; in assay [4], 7.00 to 8.00; in assay [7], 7.00 to 8.00.

(Values after patent publication US9181223B2, “2-aminopyrimidin-6-ones and analogs exhibiting anti-cancer and anti-proliferative activities” (Deciphera Pharmaceuticals, LLC, priority 2013, dated 2015).)
